Key:
human keratinocytes = experiment: Viability of human keratinocytes (resazurin); type: cell-based; details: 50 μg/mL, 24 hours
Protocol: Results represent the mean±SEM of at least three independent experiments, each of them performed in triplicate: **<0.01, ***p<0.001.
The compound (6a) of the present application has no toxicity in human cells, contrarily to the ginkgolic acid (1), or the synthetic commercial insecticide evaluated as benchmark (chlorpyrifos) (FIG. 3), as assessed by cultivating human keratinocytes in the same cell density, exposing them to either compound (6a) or chlorpyrifos at the same concentration (50 μg/mL) and assessing cell viability after 24 hours using resazurin.

[1] = system: insect effector caspase DRICE; experiment: Caspase-like activity in insect cells (DEVD-aminoluciferin substrate); type: cell-based; details: 50 μg/mL
Protocol: The compound (6a) of the present application presents a mechanism of action distinct of the commercial insecticide chlorpyrifos, which may be of interest as a strategy to overcome pesticide resistances. Specifically, the compound (6a) is capable of activating insect effector caspase DRICE (involved in the process of cell death), while the commercial insecticide is unable to trigger this effect and has no impact in this target (FIG. 4). This was evaluated by incubating cells with the same cellular density with the proluminescent substrate DEVD-aminoluciferin, which becomes […] after cleavage by effector caspases, being detected subsequently in a luminescence detector.

Sf9 cells [2] = details: Sf9 insect cells, 100 μg/mL, prior studies; cited from earlier work
Sf9 cells [3] = experiment: Viability of Sf9 insect cells (resazurin); type: cell-based, Spodoptera frugiperda
Excerpt: Results represent the mean+SEM of at least three independent experiments, each of them performed in triplicate: *p<0.05, **p<0.01, ***p<0.001.

Row | SMILES | loss of cell viability (human keratinocytes) | caspase-like activity, increase over basal level [1] | loss of viability (Sf9 cells [2]) | activity in Sf9 insect cells (compared with compound 1) (Sf9 cells [3]; Sf9 insect cells) | loss of cell viability relative to chlorpyrifos (Sf9 cells [3]; Spodoptera frugiperda cells, 100 μg/mL, 24 hours, resazurin)
1 | CCOP(=S)(OCC)Oc1nc(Cl)c(Cl)cc1Cl [chlorpyrifos, O,O-diethyl O-(3,5,6-trichloropyridin-2-yl) phosphorothioate] | ca. 20% | no statistically significant changes | – | – | –
2 | CCCCCCC=CCCCCCCCCCc1cccc(O)c1C(=O)O [compound 1, 2-(heptadec-10-en-1-yl)-6-hydroxybenzoic acid] | – | no increase | ca. 75% | – | –
3 | CCCCCCC=CCCCCCCCCCc1cccc(OC)c1C(=O)O [compound 2, 2-(heptadec-10-en-1-yl)-6-methoxybenzoic acid] | – | – | – | lower activity | –
4 | CCCCCCCCCCCCNc1ccccc1C(=O)O [compound 6a, 2-(dodecylamino) benzoic acid] | – | 400% | – | – | more than the triple

Source: US20240196893A1, “LOW TOXICITY COMPOUNDS FOR USE AS INSECTICIDES AND METHOD OF PRODUCING SAID COMPOUNDS” (UNIVERSIDADE DO PORTO, priority 2021, published 2024)
